Reference: patent publication US20250002489A1, “BIFUNCTIONAL COMPOUNDS FOR DEGRADING ITK VIA UBIQUITIN PROTEOSOME PATHWAY” (NURIX THERAPEUTICS, INC., priority 2021, published 2025)

Target: T1, ITK (Jurkat or Molt4 cells) (Homo sapiens, UniProt Q08881)
T1 construct: either human Jurkat (Clone E6-1 ATCC TIB-152) or Motl4 (ATCC CRL-1552), were plated; endogenous in cells; host or cells: Jurkat Clone E6-1 (ATCC TIB-152) or Molt4 (ATCC CRL-1552)
T1 sequence (Q08881 1-620): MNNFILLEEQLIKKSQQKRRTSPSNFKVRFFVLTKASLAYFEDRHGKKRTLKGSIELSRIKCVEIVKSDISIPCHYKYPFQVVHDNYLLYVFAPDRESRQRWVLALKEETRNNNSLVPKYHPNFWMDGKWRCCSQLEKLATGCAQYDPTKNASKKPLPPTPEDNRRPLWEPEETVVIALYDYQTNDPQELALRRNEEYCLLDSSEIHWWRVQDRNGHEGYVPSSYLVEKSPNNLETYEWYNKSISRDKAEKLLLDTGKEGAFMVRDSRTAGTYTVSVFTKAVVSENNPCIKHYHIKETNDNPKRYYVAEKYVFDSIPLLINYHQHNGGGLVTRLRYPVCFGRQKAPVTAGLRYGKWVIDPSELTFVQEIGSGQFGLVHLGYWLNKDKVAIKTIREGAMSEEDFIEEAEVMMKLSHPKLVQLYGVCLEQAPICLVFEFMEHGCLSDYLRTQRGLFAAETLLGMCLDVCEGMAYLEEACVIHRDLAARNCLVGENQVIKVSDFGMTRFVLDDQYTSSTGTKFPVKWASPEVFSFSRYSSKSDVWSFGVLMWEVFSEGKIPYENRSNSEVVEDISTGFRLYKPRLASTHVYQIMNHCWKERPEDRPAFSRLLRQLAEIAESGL
Assay: ITK Degradation MSD (Meso Scale Discovery) Assay
Type: cell-based
Conditions: 4 or 6 hrs incubation; for DC50: best fit IC50 used as DC50
Experimental: Compound dilution series (7-point, 5-fold dilutions in DMSO, rows B—H with replicate in Column 1/2, 3/4, 5/6, 7, and 8 at 2000× the final required concentrations were prepared in 96-well plate (Falcon, cat. no. 353077). Row A, Column 1-8 were control DMSO. The 2000× solutions ranged from 2 mM to 128 nM (final assay concentration range 1 μM to […]). The 2000×solutions were added to cells in 10 μL volume, for a final DMSO concentration of 0.5% and final assay compound concentration of 1×. For the cells, either human Jurkat (Clone E6-1 ATCC TIB-152) or Motl4 (ATCC CRL-1552), were plated at 1×10^6 cells/mL, 100 μL/well ([…]) in complete RPMI (10% FBS, 1% L-glutamine). The cells were incubated with compounds 26-29 for 4 or 6 hrs at 32° C./6% CO2.
Following incubation, plates were centrifuged at 1200 rpm for 5 min. Supernatant was removed and 50 μL of cell lysis buffer (MSD Tris lysis buffer (R60TX), complete Mini EDTA-free protease inhibitor (Sigma 11836170001), Protease Inhibitor Cocktail (Sigma, P2714), Phosphatase Inhibitor Cocktail 2 and 3 (Sigma, P5726 and P0044), Benzonase (Sigma, E1014)) was added to each well. Plate was sealed and shook at 4° C. for 30 min. Plate was centrifuged and 45 μL was removed for plate assay.
Assay plate preparation: Meso Scale Discovery (MSD) multi-array sm spot 96-well plates (Goat anti-Rabbit L^45-RA), were blocked with 3% BSA blocking buffer (3% Bovine Serum Albumin (Sigma A3059)+TBS 0.2% Tween-20) for one hour with gentle rocking at room temperature. Plate was then washed with 200 μL of 1×TBST (TBS 0.2% Tween-20) three times. After the last wash, all liquid was removed and 50 μL per well of capture antibody (abcam ITK Y402-ab32507) was added to plate at a 1:1000 dilution in blocking buffer (see above). Plate was sealed and rocked at room temperature for 2 hrs. Plate was then washed three times with 200 μL of 1×TBST. After the last wash, all liquid was removed and 45 μL of cell lysate (from above) was added to plate. Plate was sealed and rocked overnight at 4° C. The next day, cell lysates were removed, and assay plate was washed three times with 200 μL of 1×TBST. After the last wash, liquid was removed and detection antibody (CST ITK (2F12) #2380) was added at 50 μL per well at a dilution of 1:1000 in blocking buffer. Plate was sealed and rocked at room temperature for 2 hrs. Plate was washed three times with 200 μL of 1×TBST. After the last wash, all liquid was removed, MSD […] sulfo tag (R32AC-1) was diluted to 1:1000 in blocking buffer. 50 μL was added to each well on the plate. Plate was sealed and incubated at room temperature for one hour. Plate was washed three times with 200 μL of 1×TBST. After last wash, all liquid was removed and 150 μL of 1×MSD Read Buffer T (R92PC) was then added to each well for ECL read out.
For reading ECL signal, plate was read on a Meso Scale Discovery (MSD) MESO Sector S 600 plate reader. Percent ITK was then calculated as described below.
Percent ITK remaining per sample was calculated as follows: […]
Using Graphpad Prism, % ITK remaining values were plotted as a function of compound concentration. To determine DC50 and Dmax values, resulting curves were fit to the Prism curve-fitting equation “log(inhibitor) vs response−Variable slope (four parameters)” (reported best fit value IC50 used as DC50).

| SMILES | Dmax [%] | DC50 [nM] |
| --- | --- | --- |
| Cc1ncsc1-c1ccc(CNC(=O)[C@@H]2C[C@@H](O)CN2C(=O)[C@@H](NC(=O)C2(F)CC2)C(C)(C)C)c(OCCCCCCCC(=O)N2CC([C@@H](c3ccccc3)n3cc(NC(=O)c4n[nH]c5c4C[C@@H]4C(F)(F)[C@]4(C)C5)cn3)C2)c1 [Compound 20, (4aS,5aR)-5,5-difluoro-N-(1-((S)-(1-(8-(2-(((2S,4R)-1-((S)-2-(1-fluorocyclopropane-1-carboxamido)-3,3-dimethylbutanoyl)-4-hydroxypyrrolidine-2-carboxamido)methyl)-5-(4-methylthiazol-5-yl)phenoxy)octanoyl)azetidin-3-yl)(phenyl)methyl)-1H-pyrazol-4-yl)-5a-methyl-1,4,4a,5,5a,6-hexahydrocyclopropa[f]indazole-3-carboxamide] | 94.6 | 1.27 |
| Cc1ncsc1-c1ccc(CNC(=O)[C@@H]2C[C@@H](O)CN2C(=O)[C@@H](NC(=O)C2(F)CC2)C(C)(C)C)c(OCCCC(=O)N2CC([C@@H](c3ccccc3)n3cc(NC(=O)c4n[nH]c5c4C[C@@H]4C(F)(F)[C@]4(C)C5)cn3)C2)c1 [Compound 33, (4aS,5aR)-5,5-difluoro-N-(1-((S)-(1-(4-(2-(((2S,4R)-1-((S)-2-(1-fluorocyclopropane-1-carboxamido)-3,3-dimethylbutanoyl)-4-hydroxypyrrolidine-2-carboxamido)methyl)-5-(4-methylthiazol-5-yl)phenoxy)butanoyl)azetidin-3-yl)(phenyl)methyl)-1H-pyrazol-4-yl)-5a-methyl-1,4,4a,5,5a,6-hexahydrocyclopropa[f]indazole-3-carboxamide] | 94.5 | 27.9 |
| CN[C@@H](C)C(=O)N[C@H](C(=O)N1C[C@@H](NC(=O)CCOCCC(=O)N2CC([C@@H](c3ccccc3)n3cc(NC(=O)c4n[nH]c5c4C[C@@H]4C(F)(F)[C@]4(C)C5)cn3)C2)C[C@H]1C(=O)N[C@@H]1CCCc2ccccc21)C1CCCCC1 [Compound 1] |  | 251 |
| CN[C@@H](C)C(=O)N[C@H](C(=O)N1CCC[C@H]1c1nc(C(=O)c2cccc(OCCCCN3CC([C@@H](c4ccccc4)n4cc(NC(=O)c5n[nH]c6c5C[C@@H]5C(F)(F)[C@]5(C)C6)cn4)C3)c2)cs1)C1CCCCC1 [Compound 7, (4aS,5aR)—N-(1-((S)-(1-(4-(3-(2-((S)-1-((S)-2-cyclohexyl-2-((S)-2-(methylamino)propanamido)acetyl)pyrrolidin-2-yl)thiazole-4-carbonyl)phenoxy)butyl)azetidin-3-yl)(phenyl)methyl)-1H-pyrazol-4-yl)-5,5-difluoro-5a-methyl-1,4,4a,5,5a,6-hexahydrocyclopropa[f]indazole-3-carboxamide] |  | 4.77 |
| CN[C@@H](C)C(=O)N[C@H](C(=O)N1CCCC1c1nc(C(=O)c2cccc(OCCOCCC(=O)N3CC([C@@H](c4ccccc4)n4cc(NC(=O)c5n[nH]c6c5C[C@@H]5C(F)(F)[C@]5(C)C6)cn4)C3)c2)cs1)C1CCCCC1 (stereo in doubt) [Compound 5, (4aS,5aR)—N-(1-((S)-(1-(3-(2-(3-(2-((R)-1-((S)-2-cyclohexyl-2-((S)-2-(methylamino)propanamido)acetyl)pyrrolidin-2-yl)thiazole-4-carbonyl)phenoxy)ethoxy)propanoyl)azetidin-3-yl)(phenyl)methyl)-1H-pyrazol-4-yl)-5,5-difluoro-5a-methyl-1,4,4a,5,5a,6-hexahydrocyclopropa[f]indazole-3-carboxamide] |  | 14.6 |
| Cc1ncsc1-c1ccc(CNC(=O)[C@@H]2C[C@@H](O)CN2C(=O)[C@@H](NC(=O)C2(F)CC2)C(C)(C)C)c(OCC(=O)N2CC([C@@H](c3ccccc3)n3cc(NC(=O)c4n[nH]c5c4C[C@@H]4C(F)(F)[C@]4(C)C5)cn3)C2)c1 [Compound 32, (4aS,5aR)-5,5-difluoro-N-(1-((S)-(1-(2-(2-(((2S,4R)-1-((S)-2-(1-fluorocyclopropane-1-carboxamido)-3,3-dimethylbutanoyl)-4-hydroxypyrrolidine-2-carboxamido)methyl)-5-(4-methylthiazol-5-yl)phenoxy)acetyl)azetidin-3-yl)(phenyl)methyl)-1H-pyrazol-4-yl)-5a-methyl-1,4,4a,5,5a,6-hexahydrocyclopropa[f]indazole-3-carboxamide] | 63.4 | 20.2 |
| Cc1ncsc1-c1ccc(CNC(=O)[C@@H]2C[C@@H](O)CN2C(=O)[C@@H](NC(=O)CCOCCC(=O)N2CC([C@@H](c3ccccc3)n3cc(NC(=O)c4n[nH]c5c4C[C@@H]4C(F)(F)[C@]4(C)C5)cn3)C2)C(C)(C)C)cc1 [Compound 16, (4aS,5aR)-5,5-difluoro-N-(1-((S)-(1-(3-(3-(((S)-1-((2S,4R)-4-hydroxy-2-((4-(4-methylthiazol-5-yl)benzyl)carbamoyl)pyrrolidin-1-yl)-3,3-dimethyl-1-oxobutan-2-yl)amino)-3-oxopropoxy)propanoyl)azetidin-3-yl)(phenyl)methyl)-1H-pyrazol-4-yl)-5a-methyl-1,4,4a,5,5a,6-hexahydrocyclopropafindazole-3-carboxamide] |  | 479 |
| Cc1ncsc1-c1ccc([C@H](C)NC(=O)[C@@H]2C[C@@H](O)CN2C(=O)[C@@H](NC(=O)c2ccc(N3CCC(CC(=O)N4CC([C@@H](c5ccccc5)n5cc(NC(=O)c6n[nH]c7c6C[C@@H]6C(F)(F)[C@]6(C)C7)cn5)C4)CC3)cn2)C(C)(C)C)cc1 [Compound 23, (4aS,5aR)-5,5-difluoro-N-(1-((S)-(1-(2-(1-(6-(((S)-1-((2S,4R)-4-hydroxy-2-(((S)-1-(4-(4-methylthiazol-5-yl)phenyl)ethyl)carbamoyl)pyrrolidin-1-yl)-3,3-dimethyl-1-oxobutan-2-yl)carbamoyl)pyridin-3-yl)piperidin-4-yl)acetyl)azetidin-3-yl)(phenyl)methyl)-1H-pyrazol-4-yl)-5a-methyl-1,4,4a,5,5a,6-hexahydrocyclopropa[f]indazole-3-carboxamide] | 91 | 13.3 |
| Cc1ncsc1-c1ccc([C@H](C)NC(=O)[C@@H]2C[C@@H](O)CN2C(=O)[C@@H](NC(=O)c2ccc(N3CCC(C(=O)N4CC([C@@H](c5ccccc5)n5cc(NC(=O)c6n[nH]c7c6C[C@@H]6C(F)(F)[C@]6(C)C7)cn5)C4)CC3)cn2)C(C)(C)C)cc1 [Compound 31, (4aS,5aR)-5,5-difluoro-N-(1-((S)-(1-(1-(6-(((S)-1-((2S,4R)-4-hydroxy-2-(((S)-1-(4-(4-methylthiazol-5-yl)phenyl)ethyl)carbamoyl)pyrrolidin-1-yl)-3,3-dimethyl-1-oxobutan-2-yl)carbamoyl)pyridin-3-yl)piperidine-4-carbonyl)azetidin-3-yl)(phenyl)methyl)-1H-pyrazol-4-yl)-5a-methyl-1,4,4a,5,5a,6-hexahydrocyclopropa[f]indazole-3-carboxamide] | 88.8 | 30.1 |
